{
  "source": "patent US20240165123A1",
  "about": "“USE OF A COMPOUND CONTAINING A TRICYCLIC HETEROARYL GROUP” (CSPC Zhongqi Pharmaceutical Technology (Shijiazhuang) Co., …, priority 2021, published 2024)",
  "experiment": "Toxicity test of oral gavage administration in SD rats, 28 consecutive days",
  "format": "in vivo",
  "conditions": "for AUC: NOAEL 10 mg/kg/time BID, 28-day test; for Safety window, exposure method: NOAEL 28-day test",
  "description": "According to the general toxicology study in accordance with the NMPA “Good Laboratory Practice for Non-clinical Laboratory Studies” and FDA GLP specification (21CFR Part 58), and in line with the requirements of International Conference on Harmonization of Technical Requirements for Registration of Pharmaceuticals for Human Use (ICH) and the NMPA relevant guidelines, the toxicology study on Compound (I) was carried out to provide safety data support for the use of Compound (I) in clinical patients. The administration mode and the experimental results were as follows: […]",
  "data": [
    {"smiles": "NC(=O)c1cnc(Nc2ccc3c(c2)OC[C@H]2CN(S(=O)(=O)C4CC4)CCN32)nc1NC1CC1", "note": "[Compound (I), (R)-4-(cyclopropylamino)-2-((3-(cyclopropylsulfonyl)-1,2,3,4,4a,5-hexahydrobenzo[b]pyrazolo[1,2-d][1,4]oxazin-8-yl)amino)pyrimidine-5-arboxamide]", "values": [
      {"measurement": "Safety window, according to the exposure", "setting": "SD rats, both sexes, NOAEL 28-day test vs rat effective dose exposure", "result": "8-13 fold"},
      {"measurement": "Safety window, dose method", "setting": "SD rats, NOAEL 28-day test vs rat effective dose", "result": 3, "unit": "fold"},
      {"measurement": "Safety window of human equivalent dose of NOAEL relative to the human initial dose", "setting": "SD, rat, in vivo, 28 days", "result": 16, "unit": "fold"},
      {"measurement": "NOAEL at 28 days", "setting": "SD, rat, in vivo, po", "result": 20, "unit": "mg/kg/day"},
      {"measurement": "AUC", "setting": "female, SD, rat, in vivo, po, rats ♀", "result": 58100, "unit": "ng·h/mL"},
      {"measurement": "AUC", "setting": "male, SD, rat, in vivo, po, rats ♂", "result": 33900, "unit": "ng·h/mL"},
      {"measurement": "Human equivalent dose (based on 60 kg body weight)", "setting": "of NOAEL for 28-day test of rats", "result": 242, "unit": "mg"},
      {"measurement": "NOAEL of repeated administration for 28 days", "setting": "rat, in vivo, po", "result": 10, "unit": "mg/kg/time"},
      {"measurement": "Safety window, exposure method", "setting": "rats ♀", "result": "♀13 fold"},
      {"measurement": "Safety window, exposure method", "setting": "rats ♂", "result": "♂8 fold"}
    ]}
  ]
}
